# Experimental data from PubChem BioAssay (NCI).
#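 How tested: cells in 96-well plates exposed to compound for 48 hours at five concentrations. TGI is the concentration that stops growth completely.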
# Key:
# Test in all cases: growth of human tumour cells (NCI), 48 h
# LXFL 529 NSCLC = system: LXFL 529 NSCLC
# LOX IMVI melanoma = system: LOX IMVI melanoma
# CAKI-1 renal = system: CAKI-1 renal
# ACHN renal = system: ACHN renal
# NCI-H522 lung = system: NCI-H522 lung
# U251 CNS = system: U251 CNS
# SK-MEL-28 melanoma = system: SK-MEL-28 melanoma
# OVCAR-8 ovarian = system: OVCAR-8 ovarian
# SF-295 CNS = system: SF-295 CNS
# A549 NSCLC = system: A549 NSCLC
# CCRF-CEM leukemia = system: CCRF-CEM leukemia
# DMS 273 small cell lung = system: DMS 273 small cell lung
# TK-10 renal = system: TK-10 renal
# HCT-15 colon = system: HCT-15 colon
# A498 renal = system: A498 renal
# 786-0 renal = system: 786-0 renal
# KM20L2 colon = system: KM20L2 colon
# SK-OV-3 ovarian = system: SK-OV-3 ovarian
# K-562 leukemia = system: K-562 leukemia
# M14 melanoma = system: M14 melanoma
# SK-MEL-5 melanoma = system: SK-MEL-5 melanoma
# SR leukemia = system: SR leukemia
# HL-60(TB) leukemia = system: HL-60(TB) leukemia
# M19-MEL melanoma = system: M19-MEL melanoma
# HT29 colon = system: HT29 colon
# HCT-116 colon = system: HCT-116 colon
# UACC-62 melanoma = system: UACC-62 melanoma
# HOP-18 NSCLC = system: HOP-18 NSCLC
# HOP-92 NSCLC = system: HOP-92 NSCLC
# SF-268 CNS = system: SF-268 CNS
# MALME-3M melanoma = system: MALME-3M melanoma
# SW-620 colon = system: SW-620 colon
# SN12C renal = system: SN12C renal
# NCI-H226 lung = system: NCI-H226 lung
# NCI-H460 lung = system: NCI-H460 lung
# UO-31 renal = system: UO-31 renal
# UACC-257 melanoma = system: UACC-257 melanoma
# IGROV1 ovarian = system: IGROV1 ovarian
# OVCAR-4 ovarian = system: OVCAR-4 ovarian
# EKVX NSCLC = system: EKVX NSCLC
# OVCAR-5 ovarian = system: OVCAR-5 ovarian
# COLO 205 colon = system: COLO 205 colon
# RPMI-8226 leukemia = system: RPMI-8226 leukemia
# SF-539 CNS = system: SF-539 CNS
# HOP-62 NSCLC = system: HOP-62 NSCLC
# DMS 114 small cell lung = system: DMS 114 small cell lung
# RXF 393 renal = system: RXF 393 renal
# OVCAR-3 ovarian = system: OVCAR-3 ovarian
# SNB-75 CNS = system: SNB-75 CNS
# KM12 colon = system: KM12 colon
# SK-MEL-2 melanoma = system: SK-MEL-2 melanoma
# SNB-78 CNS = system: SNB-78 CNS
# HCC-2998 colon = system: HCC-2998 colon
# NCI-H23 lung = system: NCI-H23 lung
# MOLT-4 leukemia = system: MOLT-4 leukemia
# DLD-1 colon = system: DLD-1 colon
# SNB-19 CNS = system: SNB-19 CNS
structure (smiles),measurement,setting,value
O=C(Nc1ccn(CCOC(=O)c2ccccc2)c(=O)n1)c1ccccc1,TGI,LXFL 529 NSCLC,> 100 µM
same,TGI,LOX IMVI melanoma,> 100 µM
same,TGI,CAKI-1 renal,> 100 µM
same,TGI,ACHN renal,> 100 µM
same,TGI,NCI-H522 lung,> 100 µM
same,TGI,U251 CNS,> 100 µM
same,TGI,SK-MEL-28 melanoma,> 100 µM
same,TGI,OVCAR-8 ovarian,> 100 µM
same,TGI,SF-295 CNS,> 100 µM
same,TGI,A549 NSCLC,> 100 µM
same,TGI,CCRF-CEM leukemia,> 100 µM
same,TGI,DMS 273 small cell lung,> 100 µM
same,TGI,TK-10 renal,> 100 µM
same,TGI,HCT-15 colon,> 100 µM
same,TGI,A498 renal,> 100 µM
same,TGI,786-0 renal,> 100 µM
same,TGI,KM20L2 colon,> 100 µM
same,TGI,SK-OV-3 ovarian,> 100 µM
same,TGI,K-562 leukemia,> 100 µM
same,TGI,M14 melanoma,> 100 µM
same,TGI,SK-MEL-5 melanoma,> 100 µM
same,TGI,SR leukemia,> 100 µM
same,TGI,HL-60(TB) leukemia,> 100 µM
same,TGI,M19-MEL melanoma,> 100 µM
same,TGI,HT29 colon,> 100 µM
same,TGI,HCT-116 colon,> 100 µM
same,TGI,UACC-62 melanoma,> 100 µM
same,TGI,HOP-18 NSCLC,> 100 µM
same,TGI,HOP-92 NSCLC,> 100 µM
same,TGI,SF-268 CNS,> 100 µM
same,TGI,MALME-3M melanoma,> 100 µM
same,TGI,SW-620 colon,> 100 µM
same,TGI,SN12C renal,> 100 µM
same,TGI,NCI-H226 lung,> 100 µM
same,TGI,NCI-H460 lung,> 100 µM
same,TGI,UO-31 renal,> 100 µM
same,TGI,UACC-257 melanoma,> 100 µM
same,TGI,IGROV1 ovarian,> 100 µM
same,TGI,OVCAR-4 ovarian,> 100 µM
same,TGI,EKVX NSCLC,> 100 µM
same,TGI,OVCAR-5 ovarian,> 100 µM
same,TGI,COLO 205 colon,> 100 µM
same,TGI,RPMI-8226 leukemia,> 100 µM
same,TGI,SF-539 CNS,> 100 µM
same,TGI,HOP-62 NSCLC,> 100 µM
same,TGI,DMS 114 small cell lung,> 100 µM
same,TGI,RXF 393 renal,> 100 µM
same,TGI,OVCAR-3 ovarian,> 100 µM
same,TGI,SNB-75 CNS,> 100 µM
same,TGI,KM12 colon,> 100 µM
same,TGI,SK-MEL-2 melanoma,> 100 µM
same,TGI,SNB-78 CNS,> 100 µM
COc1ccc(CC#N)c(OCc2ccccc2)c1,TGI,LXFL 529 NSCLC,67 µM
same,TGI,LOX IMVI melanoma,> 100 µM
same,TGI,CAKI-1 renal,> 100 µM
same,TGI,ACHN renal,> 100 µM
same,TGI,NCI-H522 lung,> 100 µM
same,TGI,SK-MEL-28 melanoma,84.6 µM
same,TGI,OVCAR-8 ovarian,> 100 µM
same,TGI,SF-295 CNS,> 100 µM
same,TGI,A549 NSCLC,> 100 µM
same,TGI,CCRF-CEM leukemia,> 100 µM
same,TGI,DMS 273 small cell lung,> 100 µM
same,TGI,HCC-2998 colon,> 100 µM
same,TGI,NCI-H23 lung,> 100 µM
same,TGI,A498 renal,59.4 µM
same,TGI,786-0 renal,> 100 µM
same,TGI,KM20L2 colon,> 100 µM
same,TGI,K-562 leukemia,> 100 µM
same,TGI,M14 melanoma,> 100 µM
same,TGI,SK-MEL-5 melanoma,50.6 µM
same,TGI,SR leukemia,> 100 µM
same,TGI,M19-MEL melanoma,> 100 µM
same,TGI,HCT-116 colon,> 100 µM
same,TGI,UACC-62 melanoma,> 100 µM
same,TGI,HOP-18 NSCLC,79.3 µM
same,TGI,SF-268 CNS,> 100 µM
same,TGI,MALME-3M melanoma,79 µM
same,TGI,SW-620 colon,> 100 µM
same,TGI,SN12C renal,> 100 µM
same,TGI,NCI-H226 lung,66 µM
same,TGI,NCI-H460 lung,> 100 µM
same,TGI,UO-31 renal,> 100 µM
same,TGI,UACC-257 melanoma,> 100 µM
same,TGI,MOLT-4 leukemia,> 100 µM
same,TGI,IGROV1 ovarian,> 100 µM
same,TGI,OVCAR-4 ovarian,> 100 µM
same,TGI,EKVX NSCLC,> 100 µM
same,TGI,COLO 205 colon,> 100 µM
same,TGI,RPMI-8226 leukemia,> 100 µM
same,TGI,SF-539 CNS,> 100 µM
same,TGI,DLD-1 colon,85 µM
same,TGI,HOP-62 NSCLC,> 100 µM
same,TGI,DMS 114 small cell lung,> 100 µM
same,TGI,OVCAR-3 ovarian,> 100 µM
same,TGI,KM12 colon,> 100 µM
same,TGI,SNB-19 CNS,> 100 µM
COc1ccc(/C=C/C(=O)c2sc(NC(=S)NC(=O)c3ccccc3F)nc2C)cc1OC,TGI,LOX IMVI melanoma,> 100 µM
same,TGI,CAKI-1 renal,> 100 µM
same,TGI,ACHN renal,> 100 µM
same,TGI,NCI-H522 lung,63.9 µM
same,TGI,U251 CNS,> 100 µM
same,TGI,SK-MEL-28 melanoma,> 100 µM
same,TGI,OVCAR-8 ovarian,> 100 µM
same,TGI,SF-295 CNS,> 100 µM
same,TGI,A549 NSCLC,> 100 µM
same,TGI,CCRF-CEM leukemia,> 100 µM
same,TGI,DMS 273 small cell lung,> 100 µM
same,TGI,TK-10 renal,> 100 µM
same,TGI,HCC-2998 colon,> 100 µM
same,TGI,NCI-H23 lung,> 100 µM
same,TGI,HCT-15 colon,> 100 µM
same,TGI,A498 renal,> 100 µM
same,TGI,786-0 renal,> 100 µM
same,TGI,KM20L2 colon,> 100 µM
same,TGI,SK-OV-3 ovarian,> 100 µM
same,TGI,K-562 leukemia,> 100 µM
same,TGI,SK-MEL-5 melanoma,> 100 µM
same,TGI,HL-60(TB) leukemia,> 100 µM
same,TGI,M19-MEL melanoma,> 100 µM
same,TGI,UACC-62 melanoma,> 100 µM
same,TGI,HOP-18 NSCLC,> 100 µM
same,TGI,HOP-92 NSCLC,> 100 µM
same,TGI,SF-268 CNS,> 100 µM
same,TGI,MALME-3M melanoma,> 100 µM
same,TGI,SW-620 colon,> 100 µM
same,TGI,SN12C renal,> 100 µM
same,TGI,NCI-H460 lung,> 100 µM
same,TGI,UO-31 renal,> 100 µM
same,TGI,MOLT-4 leukemia,> 100 µM
same,TGI,IGROV1 ovarian,> 100 µM
same,TGI,EKVX NSCLC,> 100 µM
same,TGI,OVCAR-5 ovarian,> 100 µM
same,TGI,COLO 205 colon,> 100 µM
same,TGI,RPMI-8226 leukemia,> 100 µM
same,TGI,SF-539 CNS,> 100 µM
same,TGI,DLD-1 colon,> 100 µM
same,TGI,HOP-62 NSCLC,> 100 µM
same,TGI,DMS 114 small cell lung,> 100 µM
same,TGI,RXF 393 renal,> 100 µM
same,TGI,OVCAR-3 ovarian,> 100 µM
same,TGI,SNB-75 CNS,> 100 µM
same,TGI,KM12 colon,> 100 µM
same,TGI,SK-MEL-2 melanoma,> 100 µM
same,TGI,SNB-19 CNS,> 100 µM
same,TGI,SNB-78 CNS,> 100 µM
